Reference: PMC7083565, “In vitro metabolism, reaction phenotyping, enzyme kinetics, CYP inhibition and induction potential of ataluren” (Pharmacology Research & Perspectives, 2020)

Assay: Incubation with 16 individual human liver microsomes (correlation analysis)
Assay type: in vitro ADME
Settings: 60 minutes, n = 2
Protocol: Ataluren at a concentration of 10 μmol/L, was incubated (n = 2) with 16 individual HLM at 0.5 mg protein concentration/mL for 0 and 60 minutes at 37°C. Enzyme activities for UGTs 1A1, 1A4, 1A6, 1A9, and 2B7 were precharacterized under optimized conditions by the vendor. Incubation mixtures and procedures were essentially the same as the above. The supernatant fractions were analyzed by LC‐MS/MS to quantify the formation of ataluren‐O‐1β‐acyl glucuronide and the loss of ataluren, and the enzyme activities were correlated with precharacterized UGT enzyme activities. Detailed LC‐MS/MS conditions are summarized in LC‐MS/MS Analysis section. […] The ataluren acyl glucuronide formation rate after 60 minutes incubation was calculated using the amount of metabolite formed (pmol) divided by the protein amount in the incubation sample ([…]) and the incubation time (60 minutes). […]
Quantification of ataluren loss and ataluren‐O‐1β‐acyl glucuronide formation was carried out with an LC‐MS/MS system, which consisted of two Shimadzu LC‐10ADvp pumps, a SPD10‐AVP UV/Vis detector, a Shimadzu SILHTA autosampler, a Shimadzu DGU‐14A degasser, and a Sciex API 4000 QTRAP mass spectrometer equipped with a Turbo Ionspray ionization source that operated in positive ionization mode. […]

## O=C(O)c1cccc(-c2noc(-c3ccccc3F)n2)c1 [ataluren, Ataluren]
Individual HLM sample H0273, 10 μmol/L
  Rate, Loss of ataluren: 111 pmol/mg/min
Individual HLM sample H0295, 10 μmol/L
  Rate, Loss of ataluren: 134 pmol/mg/min
